Data from ChEMBL document CHEMBL1201862, “PubChem BioAssay data set” (2004).
Calls of active or inactive are those of the source.

What was measured:
[1] = target: Neuropeptide Y receptor type 1 (Homo sapiens, UniProt P25929); experiment: Fluorescence-based counterscreen for agonists of NPY-Y2: cell-based high-throughput dose response assay for agonists of NPY-Y1.; format: functional
HEK293 = experiment: Fluorescence-based counterscreen for potentiators or agonists of NPY-Y2: cell-based high-throughput dose response assay to identify inhibitors of cyclic nucleotide gated ion channel (CNGC) activity. In this assay, the parental HEK293 cell line transfected with a cyclic-nucleotide gated ion channel (CNGC)-based cAMP sensor is used to measure inhibition of isoproterenol-induced CNGC activity by test compound.; format: functional; settings: Homo sapiens;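 also: stimulus is 1 µM isoproterenol at EC100 plus PDE inhibitor Ro 20-1724 at 25 µM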
[2] = target: Neuropeptide Y receptor type 2 (Homo sapiens, UniProt P49146); experiment: Fluorescence-based cell-based high-throughput dose response assay for agonists of NPY-Y2. [Related pubchem assays: 1703 (Screening assay (CNGC inhibitors).), 1359 (Screening assay (NPY-Y2 potentiators or agonists).), 1304 (Screening assay (NPY-Y1 potentiators or agonists).), 1710 (Screening assay (NPY-Y2 agonists).), 1791 (Summary AID.)]; format: functional
Chain of Neuropeptide Y receptor type 2 (P49146 whole entry): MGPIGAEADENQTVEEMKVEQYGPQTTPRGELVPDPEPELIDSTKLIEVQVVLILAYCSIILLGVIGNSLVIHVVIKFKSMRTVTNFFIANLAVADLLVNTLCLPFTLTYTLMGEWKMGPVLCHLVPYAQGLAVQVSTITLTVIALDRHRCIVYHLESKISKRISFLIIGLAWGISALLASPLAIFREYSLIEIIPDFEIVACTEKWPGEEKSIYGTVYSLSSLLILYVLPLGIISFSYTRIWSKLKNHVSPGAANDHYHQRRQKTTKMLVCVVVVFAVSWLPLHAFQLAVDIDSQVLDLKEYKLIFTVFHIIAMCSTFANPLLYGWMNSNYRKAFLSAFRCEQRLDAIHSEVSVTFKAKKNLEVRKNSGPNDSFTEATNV

[3] = target: T1, High affinity choline transporter 1 (Homo sapiens, UniProt Q9GZV3); experiment: human choline transporter blockers, potency – cell-based, 10-point CRC, membrane potential dye, dose response (AID 588401); format: functional;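 also: membrane potential dye fluorescence of choline-evoked depolarization via CHT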
T1 sequence (Q9GZV3 whole entry): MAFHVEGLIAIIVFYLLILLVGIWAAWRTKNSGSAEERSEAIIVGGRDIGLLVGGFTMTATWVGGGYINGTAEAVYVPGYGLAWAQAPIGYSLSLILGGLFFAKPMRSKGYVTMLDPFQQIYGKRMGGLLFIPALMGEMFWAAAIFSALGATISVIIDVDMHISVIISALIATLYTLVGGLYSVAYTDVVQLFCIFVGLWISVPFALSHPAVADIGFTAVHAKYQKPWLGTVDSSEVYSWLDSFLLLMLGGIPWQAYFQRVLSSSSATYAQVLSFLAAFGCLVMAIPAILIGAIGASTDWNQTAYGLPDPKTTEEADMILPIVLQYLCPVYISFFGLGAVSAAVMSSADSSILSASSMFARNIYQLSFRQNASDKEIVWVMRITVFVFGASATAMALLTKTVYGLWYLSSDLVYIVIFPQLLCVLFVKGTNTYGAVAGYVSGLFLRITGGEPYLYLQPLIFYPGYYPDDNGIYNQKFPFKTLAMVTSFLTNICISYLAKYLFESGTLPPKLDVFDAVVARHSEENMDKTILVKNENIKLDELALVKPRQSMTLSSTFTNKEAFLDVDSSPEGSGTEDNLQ

[4] = CCR5-tropic HIV-1 fusion blockers – cell-based, CCR5-tropic Env, dose response (AID 2279); format: functional
[5] = target: T1, High affinity choline transporter 1; experiment: human choline transporter blockers, potency – cell-based, 5-point CRC, membrane potential dye, dose response (AID 504840); format: functional
[6] = target: DNA (cytosine-5)-methyltransferase 1 (Homo sapiens, UniProt P26358); experiment: inhibition of DNA methylation by DNMT1 – biochemical, fluorescent molecular beacon, confirmation (AID 602386); format: functional
Chain of DNA (cytosine-5)-methyltransferase 1 (P26358 whole entry, the tested form may be a part): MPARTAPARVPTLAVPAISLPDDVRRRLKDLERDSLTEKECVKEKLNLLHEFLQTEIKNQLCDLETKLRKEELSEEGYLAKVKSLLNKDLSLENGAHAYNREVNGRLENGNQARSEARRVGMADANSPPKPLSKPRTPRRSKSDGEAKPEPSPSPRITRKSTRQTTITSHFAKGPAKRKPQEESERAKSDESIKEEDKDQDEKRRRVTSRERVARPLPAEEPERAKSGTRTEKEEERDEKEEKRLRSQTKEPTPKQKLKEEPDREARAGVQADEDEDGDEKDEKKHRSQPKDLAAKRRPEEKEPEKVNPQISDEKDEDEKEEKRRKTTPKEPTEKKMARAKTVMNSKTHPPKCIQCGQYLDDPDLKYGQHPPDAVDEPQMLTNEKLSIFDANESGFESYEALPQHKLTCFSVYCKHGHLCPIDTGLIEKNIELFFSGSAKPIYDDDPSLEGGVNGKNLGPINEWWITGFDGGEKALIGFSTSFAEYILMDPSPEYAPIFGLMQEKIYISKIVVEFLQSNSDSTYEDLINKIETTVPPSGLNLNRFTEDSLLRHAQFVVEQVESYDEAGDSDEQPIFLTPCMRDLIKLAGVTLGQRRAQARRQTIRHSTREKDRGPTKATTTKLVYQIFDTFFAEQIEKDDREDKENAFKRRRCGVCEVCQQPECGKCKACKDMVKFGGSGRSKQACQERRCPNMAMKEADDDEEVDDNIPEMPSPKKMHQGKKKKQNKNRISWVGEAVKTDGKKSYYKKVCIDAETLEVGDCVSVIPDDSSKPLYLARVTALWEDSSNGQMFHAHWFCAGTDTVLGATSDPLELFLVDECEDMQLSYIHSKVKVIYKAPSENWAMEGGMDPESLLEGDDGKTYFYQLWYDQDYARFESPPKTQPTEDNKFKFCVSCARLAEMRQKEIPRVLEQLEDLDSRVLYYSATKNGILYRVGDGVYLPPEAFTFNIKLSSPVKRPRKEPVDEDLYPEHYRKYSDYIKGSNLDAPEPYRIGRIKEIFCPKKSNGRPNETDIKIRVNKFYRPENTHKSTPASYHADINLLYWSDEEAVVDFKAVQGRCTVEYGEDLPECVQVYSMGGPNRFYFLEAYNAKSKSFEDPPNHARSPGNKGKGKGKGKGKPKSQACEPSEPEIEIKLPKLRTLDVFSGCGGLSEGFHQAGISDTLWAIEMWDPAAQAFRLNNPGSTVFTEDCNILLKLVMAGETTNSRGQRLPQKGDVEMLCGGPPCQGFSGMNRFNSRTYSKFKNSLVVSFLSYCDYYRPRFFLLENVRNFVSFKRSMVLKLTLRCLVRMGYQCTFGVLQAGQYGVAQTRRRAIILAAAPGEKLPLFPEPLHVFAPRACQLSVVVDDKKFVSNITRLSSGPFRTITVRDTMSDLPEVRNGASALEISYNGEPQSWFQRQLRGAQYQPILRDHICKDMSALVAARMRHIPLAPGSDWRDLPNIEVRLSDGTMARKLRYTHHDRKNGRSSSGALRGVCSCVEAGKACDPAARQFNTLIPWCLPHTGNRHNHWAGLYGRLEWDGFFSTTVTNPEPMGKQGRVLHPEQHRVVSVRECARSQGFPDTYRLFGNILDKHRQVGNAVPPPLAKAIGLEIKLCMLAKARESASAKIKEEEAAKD

Estrogen receptor = target: T2, Estrogen receptor (Homo sapiens, UniProt P03372); experiment: ERα coactivator recruitment enhancers – biochemical, TR-FRET, ERα LBD, dose response (AID 737)
T2 sequence (P03372 whole entry): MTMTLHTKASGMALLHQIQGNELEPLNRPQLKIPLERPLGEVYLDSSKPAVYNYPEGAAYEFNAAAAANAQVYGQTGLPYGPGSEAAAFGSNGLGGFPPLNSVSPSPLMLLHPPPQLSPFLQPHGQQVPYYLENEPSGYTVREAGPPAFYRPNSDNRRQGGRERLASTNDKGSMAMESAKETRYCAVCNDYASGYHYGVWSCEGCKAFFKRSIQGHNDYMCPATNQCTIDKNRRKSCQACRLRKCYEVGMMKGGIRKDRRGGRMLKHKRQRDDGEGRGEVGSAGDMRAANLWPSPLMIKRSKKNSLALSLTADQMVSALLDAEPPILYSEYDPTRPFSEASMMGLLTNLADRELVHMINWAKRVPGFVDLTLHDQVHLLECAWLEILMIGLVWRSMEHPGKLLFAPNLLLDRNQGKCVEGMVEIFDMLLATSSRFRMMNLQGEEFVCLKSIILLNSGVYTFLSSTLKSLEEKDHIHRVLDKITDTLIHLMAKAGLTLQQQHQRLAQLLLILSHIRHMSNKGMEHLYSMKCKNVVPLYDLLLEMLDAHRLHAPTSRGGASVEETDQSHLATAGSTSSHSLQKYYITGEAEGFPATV

Chain of Neuropeptide Y receptor type 1 (P25929 whole entry): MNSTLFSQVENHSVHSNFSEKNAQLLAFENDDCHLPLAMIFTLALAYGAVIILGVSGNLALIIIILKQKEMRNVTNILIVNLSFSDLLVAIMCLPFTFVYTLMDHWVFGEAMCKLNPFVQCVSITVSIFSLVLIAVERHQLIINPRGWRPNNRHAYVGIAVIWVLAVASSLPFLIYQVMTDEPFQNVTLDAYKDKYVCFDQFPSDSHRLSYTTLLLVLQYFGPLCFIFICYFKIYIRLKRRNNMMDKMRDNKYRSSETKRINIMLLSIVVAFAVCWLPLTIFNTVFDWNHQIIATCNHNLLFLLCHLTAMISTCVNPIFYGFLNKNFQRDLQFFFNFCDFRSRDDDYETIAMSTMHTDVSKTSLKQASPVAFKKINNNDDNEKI

**Q.** For `COc1ccc(Cn2cnc3c(NS(C)(=O)=O)c(C)c(C)cc32)cc1`, which EC50 [1] is on record?
**A.** 19.3 µM (not active)

**Q.** What about the EC50 (HEK293) of the same compound?
**A.** > 35.4 µM (not active)

**Q.** What about the EC50 [2] of the same compound?
**A.** > 35.4 µM (not active)

**Q.** What does the source list for `CCS(=O)(=O)C1=NSC2=NC(=O)/C(=C\c3ccc(OS(=O)(=O)c4ccccc4)cc3)C(=N)N21`?
**A.** IC50 [3]: 8.91 µM (active); IC50 [4]: 36.5 µM (active); IC50 [5]: 5.22 µM (active)

**Q.** What does the source list for `O=C(CSc1nc2c(cnn2-c2ccccc2)c(=O)[nH]1)c1ccc(Cl)cc1`?
**A.** IC50 [6]: 9.12 µM (active); EC50 (Estrogen receptor): 9.92 µM (active)
